From ChEMBL document CHEMBL3045914, “Response of dry bean to pre-plant incorporated and pre-emergence applications of S-metolachlor and fomesafen” (Crop Prot, 2009)

What was measured:
Assay type in all cases: organism-based
Phaseolus vulgaris [1] = experiment: Toxicity in Phaseolus vulgaris (dry bean) assessed as yield at 1373 to 2746 g a.i. ha'-1; conditions: in vivo
Phaseolus vulgaris [2] = experiment: Toxicity in Phaseolus vulgaris (dry bean) assessed as shoot dry weight per row at 1373 to 2746 g a.i. ha'-1; conditions: in vivo
Phaseolus vulgaris [3] = experiment: Toxicity in Phaseolus vulgaris (dry bean) assessed as plant height at 1373 to 2746 g a.i. ha'-1; conditions: in vivo
Phaseolus vulgaris [4] = experiment: Toxicity in Phaseolus vulgaris (dry bean) assessed as visible injury on leaves at 1373 to 2746 g a.i. ha'-1 after 28 days; conditions: in vivo, 672 h
Phaseolus vulgaris [5] = experiment: Toxicity in Phaseolus vulgaris (dry bean) assessed as visible injury on leaves at 1373 to 2746 g a.i. ha'-1 after 14 days; conditions: in vivo, 336 h
Phaseolus vulgaris [6] = experiment: Toxicity in Phaseolus vulgaris (dry bean) assessed as visible injury on leaves at 1373 to 2746 g a.i. ha'-1 after 7 days; conditions: in vivo, 168 h
Phaseolus vulgaris [7] = experiment: Toxicity in Phaseolus vulgaris (black dry bean) assessed as visible injury on leaves at 2 times recommended dose treated at pre-emergence application after 14 days; conditions: in vivo, other, 336 h
Phaseolus vulgaris [8] = experiment: Toxicity in Phaseolus vulgaris (white dry bean) assessed as visible injury on leaves at recommended dose treated at pre-emergence application after 14 days; conditions: in vivo, other, 336 h
Phaseolus vulgaris [9] = experiment: Toxicity in Phaseolus vulgaris (kidney dry bean) assessed as visible injury on leaves at recommended dose treated at pre-emergence application after 14 days; conditions: in vivo, other, 336 h
Phaseolus vulgaris [10] = experiment: Toxicity in Phaseolus vulgaris (cranberry dry bean) assessed as visible injury on leaves at recommended dose treated at pre-emergence application after 14 days; conditions: in vivo, other, 336 h
Phaseolus vulgaris [11] = experiment: Toxicity in Phaseolus vulgaris (black dry bean) assessed as visible injury on leaves at recommended dose treated at pre-emergence application after 14 days; conditions: in vivo, other, 336 h
Phaseolus vulgaris [12] = experiment: Toxicity in Phaseolus vulgaris (white dry bean) assessed as visible injury on leaves at 2 times recommended dose treated at pre-plant incorporated application after 14 days; conditions: in vivo, other, 336 h
Phaseolus vulgaris [13] = experiment: Toxicity in Phaseolus vulgaris (kidney dry bean) assessed as visible injury on leaves at 2 times recommended dose treated at pre-plant incorporated application after 14 days; conditions: in vivo, other, 336 h
Phaseolus vulgaris [14] = experiment: Toxicity in Phaseolus vulgaris (cranberry dry bean) assessed as visible injury on leaves at 2 times recommended dose treated at pre-plant incorporated application after 14 days; conditions: in vivo, other, 336 h
Phaseolus vulgaris [15] = experiment: Toxicity in Phaseolus vulgaris (black dry bean) assessed as visible injury on leaves at 2 times recommended dose treated at pre-plant incorporated application after 14 days; conditions: in vivo, other, 336 h
Phaseolus vulgaris [16] = experiment: Toxicity in Phaseolus vulgaris (white dry bean) assessed as visible injury on leaves at recommended dose treated at pre-plant incorporated application after 14 days; conditions: in vivo, other, 336 h
Phaseolus vulgaris [17] = experiment: Toxicity in Phaseolus vulgaris (white dry bean) assessed as visible injury on leaves at 2 times recommended dose treated at pre-emergence application after 14 days; conditions: in vivo, other, 336 h
Phaseolus vulgaris [18] = experiment: Toxicity in Phaseolus vulgaris (kidney dry bean) assessed as visible injury on leaves at 2 times recommended dose treated at pre-emergence application after 14 days; conditions: in vivo, other, 336 h
Phaseolus vulgaris [19] = experiment: Toxicity in Phaseolus vulgaris (cranberry dry bean) assessed as visible injury on leaves at 2 times recommended dose treated at pre-emergence application after 14 days; conditions: in vivo, other, 336 h
Phaseolus vulgaris [20] = experiment: Toxicity in Phaseolus vulgaris (kidney dry bean) assessed as visible injury on leaves at recommended dose treated at pre-plant incorporated application after 14 days; conditions: in vivo, other, 336 h
Phaseolus vulgaris [21] = experiment: Toxicity in Phaseolus vulgaris (cranberry dry bean) assessed as visible injury on leaves at recommended dose treated at pre-plant incorporated application after 14 days; conditions: in vivo, other, 336 h
Phaseolus vulgaris [22] = experiment: Toxicity in Phaseolus vulgaris (black dry bean) assessed as visible injury on leaves at recommended dose treated at pre-plant incorporated application after 14 days; conditions: in vivo, other, 336 h
Phaseolus vulgaris [23] = experiment: Toxicity in Phaseolus vulgaris (dry bean)assessed as visible injury on leaves at 280 to 560 g a.i. ha'-1 after 7 days; conditions: in vivo, 168 h
Phaseolus vulgaris [24] = experiment: Toxicity in Phaseolus vulgaris (dry bean) assessed as yield at 280 to 560 g a.i. ha'-1; conditions: in vivo
Phaseolus vulgaris [25] = experiment: Toxicity in Phaseolus vulgaris (dry bean) assessed as shoot dry weight per row at 280 to 560 g a.i. ha'-1; conditions: in vivo
Phaseolus vulgaris [26] = experiment: Toxicity in Phaseolus vulgaris (dry bean) assessed as plant height at 280 to 560 g a.i. ha'-1; conditions: in vivo
Phaseolus vulgaris [27] = experiment: Toxicity in Phaseolus vulgaris (dry bean) assessed as visible injury on leaves at 280 to 560 g a.i. ha'-1 after 28 days; conditions: in vivo, 672 h
Phaseolus vulgaris [28] = experiment: Toxicity in Phaseolus vulgaris (dry bean)assessed as visible injury on leaves at 280 to 560 g a.i. ha'-1 after 14 days; conditions: in vivo, 336 h

Structure (SMILES) | Activity (Phaseolus vulgaris [7]) [%] | Activity (Phaseolus vulgaris [8]) [%] | Activity (Phaseolus vulgaris [9]) [%] | Activity (Phaseolus vulgaris [10]) [%] | Activity (Phaseolus vulgaris [11]) [%] | Activity (Phaseolus vulgaris [12]) [%] | Activity (Phaseolus vulgaris [13]) [%] | Activity (Phaseolus vulgaris [14]) [%] | Activity (Phaseolus vulgaris [15]) [%] | Activity (Phaseolus vulgaris [16]) [%] | Activity (Phaseolus vulgaris [17]) [%] | Activity (Phaseolus vulgaris [18]) [%] | Activity (Phaseolus vulgaris [19]) [%] | Activity (Phaseolus vulgaris [20]) [%] | Activity (Phaseolus vulgaris [21]) [%] | Activity (Phaseolus vulgaris [22]) [%] | further results
CCc1cccc(C)c1N(C(=O)CCl)[C@@H](C)COC [S-METOLACHLOR] | 5.5 | 4.2 | 0 | 0 | 3.4 | 1.6 | 0.7 | 0.2 | 0.7 | 0.5 | 6.6 | 0.1 | 0.1 | 0.1 | 0.1 | 0.9 | Crop_yield (Phaseolus vulgaris [1]): 2.4 tons/ha; Activity (Phaseolus vulgaris [2]): 39 g; Activity (Phaseolus vulgaris [3]): 49 cm; Activity (Phaseolus vulgaris [4]): 0.2%; Activity (Phaseolus vulgaris [5]): 1%; Activity (Phaseolus vulgaris [6]): 0.7%
CS(=O)(=O)NC(=O)c1cc(Oc2ccc(C(F)(F)F)cc2Cl)ccc1[N+](=O)[O-] [FOMESAFEN] | 1.2 | 0.1 | 0 | 0 | 1 | 0.2 | 0.2 | 0 | 0.5 | 0.5 | 0.4 | 0.2 | 0 | 0.3 | 0.1 | 0.8 | Activity (Phaseolus vulgaris [23]): 0.2%; Crop_yield (Phaseolus vulgaris [24]): 2.4 tons/ha; Activity (Phaseolus vulgaris [25]): 40 g; Activity (Phaseolus vulgaris [26]): 49 cm; Activity (Phaseolus vulgaris [27]): 0%; Activity (Phaseolus vulgaris [28]): 0.2%
